In patent US4457919A, “Method of imparting immunomodulating, antiviral or antitumor activity” (Newport Pharmaceutical International, Inc., priority 1982, dated 1984):

Key:
[1] = Formation of NPT 15392 on incubation with liver homogenate (HPLC); format: in vitro ADME; conditions: for % of NPT 15392: 0 hrs.
From the text: | ^a Determined using HPLC

[2] = Blood levels after i.p. administration to mice; format: in vivo; conditions: for Convertible to NPT 15392, Biological: Mouse: Table 11 summary; for Blood Level of NPT 15458: i.p., 360 μm/kg of compound administered
From the text: This clearly establishes the fact that NPT 15458 and NPT 15457 can produce NPT 15392 in vivo and further at least one of these derivatives gives much higher blood levels allowing for greater activity.

[3] = tested on: human peripheral blood lymphocytes; test: PHA mitogen-induced lymphocyte proliferation using human peripheral blood lymphocytes (HPBL); format: cell-based; conditions: for Cpm Incorp. +PHA: with PHA; for Cpm Incorp. +PHA / Cpm Incorp. -PHA / S.I. / fold induction at 0.036 µM / fold induction at 0.36 µM / fold induction at 3.6 µM: NPT 15392 values means of three experiments; for Cpm Incorp. -PHA: without PHA; for S.I.: NPT 15458 p ≤ 0.05; for fold induction at 0.036 µM / fold induction at 0.36 µM / fold induction at 3.6 µM: Homo sapiens, Lymphocyte, read-out: D/C (S.I. drug / control); for Immunomodulating (in vitro) lymphocyte proliferation (in words): PHA, HPBL; for Immunomodulating (in vitro) Lymph. Prolif., change: Table 11 summary
Procedure: 2. Mitogen induced lymphocyte proliferation using human peripheral blood lymphocytes (HPBL) (in vitro).
1. Twenty-two and a half grams of Ficoll 400 (Pharmacia, M.W. .perspectiveto.400,000) are dissolved in 200 ml of distilled H2 O. When most of the material is in solution, the volume is then adjusted to 250 ml with distilled H2 O.
2. Thirty-four grams of Hypaque (sodium diatrizoate, Sterling Organics, M.W. .perspectiveto.636) are dissolved in 100 ml distilled H2 O.
3. Solutions are then sterile filtered thorugh a 0.45μ millipore filter and stored in sterile containers at 4° C. away from light.
4. Working solutions are prepared by mixing 10 ml Hypaque solution with 24 ml Ficoll solution. The mixture is warmed to 25° C. with constant stirring.
1. Human blood samples are obtained by veinipuncture into heparinized 20 ml-vacutainer tubes. Fifteen to twenty ml of the undiluted blood is gently layered over an equal volume of Ficoll-Hypaque solution in sterile 50 ml polycarbonate centrifuge tubes using aseptic techniques.
2. Prepared samples are centrifuged at 25° C., 400×g for 30 mins. The fuzzy white band at the interface is aseptically aspirated into a 50 ml sterile centrifuge tube with 10-20 ml RPMI-1640. The cells are washed once at 25° C. 400×g for 10 mins. at 25° C.
3. Pelleted PBL's are resuspended in 1 ml RPMI for every 8 ml whole blood originally used and counted with a Coulter counter. Concentration is adjusted with RPMI-1640 supplemented with glutamine and antibiotics. The cells are held at room temperatue until used.
1. Lipopolysaccharide B or Phytohemagglutinin P powder is weighed and dissolved in RPMI-1640 at a concentration of 1000 μg/ml (1 mg/ml) and filter sterilized through a 0.45μ millipore filter.
2. Solutions are aliquotted (1 ml/tube) asceptically into labelled sterile cryotubes and frozen. Samples are not refrozen after partial use, but may be stored for a day or two at 4° C. Lyophilized powder is kept refrigerated at 4° C.
1. PBL's are prepared as in SOP #I-004 in serum-free RPMI-1640 supplemented with glutamine and antibiotic-antimycotic solution (GIBCO). One tenth ml per well is added to each well of 96-well microtest culture plates (CoStar Plastics) with 8-channel automatic micropipettors (Flow Labs.) fitted with sterile tips.
2. Mitogen solutions are thawed rapidly and diluted to 4 times the desired concentration with RPMI-1640.
3. Test compounds are prepared for use as per SOP #C-002, using RPMI-1640 as diluent, and diluted to 4 times the final desired concentration.
4. Fifty μl of each dilution of mitogen and/or test compound is added to 6 replicate cultures. Plain RPMI-1640 is used in the same amounts in control cultures for a total volume of 0.2 ml/well.
5. Cultures are incubated at 37° C. in a humidified 95% air, 5% CO2 atmosphere (pH .perspectiveto.6.0- 7.0) for 48 hours. The cells are then labelled with 0.5μCi/well ^3 H-TdR (Thymidine) for an additional 18 hours. the cells are harvested with a multiple automatic sample harvester (M.A.S.H.) machine. Nonadherent cells are aspirated onto glass fiber filter strips with 0.9% saline solution (10 well flushes) and the cells lysed with distilled water (20 well flushes). The strips are thoroughly air dried, residual cell deposits cut from the strips and each sample placed in 1 dram glass scintillation vials. Scintillation fluid concentrate (Scintiprep 1, Fisher Chemicals) is diluted 1:50 with scintillation grade toluene (Packard) and 1 ml added to each vial. Samples are evaluated by liquid scintillation spectroscopy and the data expressed as the means counts per minute per test group.

[4] = tested on: Vero Cells, Liver Homogenate, and Human Peripheral Blood Lymphocytes; test: Conversion of pro-drugs to NPT 15392 by animal cells and tissues, stated in words; format: in vitro ADME; conditions: NPT 15458 compared with NPT 15457
[5] = tested on: 8068 (Human); test: Inhibition of growth of 8068 human tumor (leukemia) cells; format: cell-based; conditions: 10 μg/ml
From the text: (§1) Effect of Erythro-9-(2-Acetoxy-3-Nonyl)-Hypoxanthine on Growth of Tumor (Leukemia) Cells In Vivo

[6] = tested on: mouse spleen cells; test: PHA mitogen-induced lymphocyte proliferation using murine spleen cells (in vitro); format: cell-based; conditions: for Cpm Incorp. +PHA: with PHA; for Cpm Incorp. -PHA: without PHA
From the text: 1. Mitogen induced lymphocyte proliferation using murine spleen cells (in vitro).

[7] = tested on: L1210 (mouse); test: Inhibition of growth of L1210 mouse leukemia cells; format: cell-based; conditions: 10 μg/ml
Procedure: as §1
The activity of one of these agents, NPT 15458 as inhibitors of the growth of abnormal lymphocytes has been determined. […] A 40% inhibition of L-1210 cells was effected by NPT 15458 at 10 μg/ml.

[8] = tested on: viruses, immune response, leukemic lymphocytes; conditions: cited from earlier work
[9] = Mus musculus, Lymphocyte, 10 ng/ml, read-out: D/C (S.I. drug / control)

Compound | % of NPT 15392 [1] [%] | metabolised at 0.5 h [1] [%] | Convertible to NPT 15392, Biological: Mouse [2] | Cpm Incorp. +PHA ([3]; 0.036 n moles/ml) | Cpm Incorp. -PHA ([3]; 0.036 n moles/ml) [Cpm] | S.I. ([3]; 0.036 n moles/ml) | Cpm Incorp. +PHA ([3]; 0.36 n moles/ml) | Cpm Incorp. -PHA ([3]; 0.36 n moles/ml) [Cpm] | S.I. ([3]; 0.36 n moles/ml) | Cpm Incorp. +PHA ([3]; 3.6 n moles/ml) | Cpm Incorp. -PHA ([3]; 3.6 n moles/ml) [Cpm] | S.I. ([3]; 3.6 n moles/ml) | fold induction at 0.036 µM ([3]; 0.036 n moles/ml) | fold induction at 0.36 µM ([3]; 0.36 n moles/ml) | fold induction at 3.6 µM ([3]; 3.6 n moles/ml) | Immunomodulating (in vitro) lymphocyte proliferation (in words) [3] | Immunomodulating (in vitro) Lymph. Prolif., change [3] | S.I. (stimulation index) ([6]; 10 ng/ml) | Cpm Incorp. +PHA ([6]; 10 ng/ml) | Cpm Incorp. -PHA ([6]; 10 ng/ml) [Cpm] | further results
CCCCCC[C@H]([C@H](C)OC(=O)CCC(=O)O)n1cnc2c(=O)[nH]cnc21 (relative stereo) [NPT 15457, Erythro-9-(2-Succinoxy-3-Nonyl) Hypoxanthine] | 0 | 14 | 25 | 59,569 Cpm | 240 | 250 | 59,689 Cpm | 228 | 261 | 52,149 Cpm | 232 | 224 | 1.28 | 1.33 | 1.14 | effectve in augmenting PHA induced lymphocyte proliferation and Yes | 14-28% |  |  |  | 
CCCCCC[C@H]([C@H](C)OC(C)=O)n1cnc2c(=O)[nH]cnc21 (relative stereo) [NPT 15458, erythro-9-(2-Acetoxy-3-Nonyl)-Hypoxanthine] | 0 | 70 | 100 | 59,898 Cpm | 214 | 280 | 63,858 Cpm | 221 | 289 | 69,055 Cpm | 238 | 290 | 1.43 | 1.48 | 1.48 | effectve in augmenting PHA induced lymphocyte proliferation and Yes | 43-48% | 436 | 66,800 Cpm | 153 | Conversion to NPT 15392 (in words) [4]: appears to occur to a greater extent than the conversion of NPT 15457 to NPT 15392; inhibition at 10 µg/mL [5]: 32%; S.I. (stimulation index) ([6]; 50 ng/ml): 589; Cpm Incorp. +PHA ([6]; 50 ng/ml): 81,297 Cpm; Cpm Incorp. -PHA ([6]; 50 ng/ml): 138 Cpm; fold induction at 0.01 µg/mL [6, 9]: 0.93; fold induction at 0.05 µg/mL ([6]; Mus musculus, Lymphocyte, 50 ng/ml, read-out: D/C (S.I. drug / control)): 1.25; activation at 50 µg/mL ([6]; Mus musculus, Lymphocyte, 50 μg/ml, read-out: Increase of PHA induced lymphocyte proliferation): ~25%; Blood Level of NPT 15458 ([2]; animal # 1): 0 μm/ml × 10^3; Blood Level of NPT 15458 ([2]; animal # 2): 0 μm/ml × 10^3; inhibition at 10 µg/mL [7]: 40%
CCCCCC[C@H]([C@H](C)O)n1cnc2c(=O)[nH]cnc21 (relative stereo) [NPT 15392, erythro-9-(2-hydroxy-3-nonyl)-hypoxanthine, reference compound] | 100 | 100 |  | 59,167 Cpm | 297 | 199 | 69,057 Cpm | 577 | 120 | 67,328 Cpm | 381 | 176 | 1.27 | 0.76 | 1.13 | Yes | 12-27% | 588 | 68,804 Cpm | 117 | fold induction at 0.01 µg/mL [6, 9]: 1.25; Previously demonstrated activity (in words) [8]: antiviral immunomodulating and anti-tumor activity
